We go through 24 molecules from patent publication US20160287589A1, “SUBSTITUTED-IMIDAZOPYRIDAZINES” (BAYER PHARMA AKTIENGESELLSCHAFT, priority 2013, published 2016).

The target of the assay is T1, MKNK1 (Homo sapiens, UniProt Q9BUB5, T385D).
T1 construct: GST (N); purchased Carna Biosciences 02-145; host or cells: insect cells (baculovirus expression system)
The assay is described as follows: MKNK1 kinase high ATP assay (TR-FRET-based). It is filed as biochemical. The settings on record: 2 mM ATP, 15 min preincubation. As to the method:
MKNK1 Kinase High ATP Assay
MKNK1-inhibitory activity at high ATP of compounds of the present invention after their preincubation with MKNK1 was quantified employing the TR-FRET-based MKNK1 high ATP assay as described in the following paragraphs.
A recombinant fusion protein of Glutathione-S-Transferase (GST, N-terminally) and human full-length MKNK1 (amino acids 1-424 and T344D of accession number BAA 19885.1), expressed in insect cells using baculovirus expression system and purified via glutathione sepharose affinity chromatography, was purchased from Carna Biosciences (product no 02-145) and used as enzyme. As substrate for the kinase reaction the biotinylated peptide biotin-Ahx-IKKRKLTRRKSLKG (C-terminus in amide form) was used, which can be purchased e.g. from the company Biosyntan (Berlin-Buch, Germany).
For the assay 50 nL of a 100 fold concentrated solution of the test compound in DMSO was pipetted into a black low volume 384 well microtiter plate (Greiner Bio-One, Frickenhausen, Germany), 2 μL of a solution of MKNK1 in aqueous assay buffer [50 mM HEPES pH 7.5, 5 mM magnesium chloride, 1.0 mM dithiothreitol, 0.005% (v/v) Nonidet-P40 (Sigma)] was added and the mixture was incubated for 15 min at 22° C. to allow pre-binding of the test compounds to the enzyme before the start of the kinase reaction. Then the kinase reaction was started by the addition of 3 μL of a solution of adenosine-tri-phosphate (ATP, 3.3 mM=>final conc. in the 5 μL assay volume is 2 mM) and substrate (0.1 μM=>final conc. in the 5 μL assay volume is 0.06 μM) in assay buffer and the resulting mixture was incubated for a reaction time of 30 min at 22° C. The concentration of MKNK1 was adjusted depending of the activity of the enzyme lot and was chosen appropriate to have the assay in the linear range, typical concentrations were in the range of 0.003 μg/mL. The reaction was stopped by the addition of 5 μL of a solution of TR-FRET detection reagents (5 nM streptavidine-XL665 [Cisbio Bioassays, Codolet, France] and 1 nM anti-ribosomal protein S6 (pSer236)-antibody from Invitrogen [#44921G] and 1 nM LANCE EU-W1024 labeled ProteinG [Perkin-Elmer, product no. AD0071]) in an aqueous EDTA-solution (100 mM EDTA, 0.1% (w/v) bovine serum albumin in 50 mM HEPES pH 7.5).
The resulting mixture was incubated for 1 h at 22° C. to allow the formation of complex between the phosphorylated biotinylated peptide and the detection reagents. Subsequently the amount of phosphorylated substrate was evaluated by measurement of the resonance energy transfer from the Eu-chelate to the streptavidine-XL. Therefore, the fluorescence emissions at 620 nm and 665 nm after excitation at 350 nm were measured in a TR-FRET reader, e.g. a Rubystar (BMG Labtechnologies, Offenburg, Germany) or a Viewlux (Perkin-Elmer). The ratio of the emissions at 665 nm and at […] was taken as the measure for the amount of phosphorylated substrate. The data were normalised (enzyme reaction without inhibitor=0% inhibition, all other assay components but no enzyme=100% inhibition).

T1 sequence (Q9BUB5 1-424 isoform Q9BUB5-2 T344D): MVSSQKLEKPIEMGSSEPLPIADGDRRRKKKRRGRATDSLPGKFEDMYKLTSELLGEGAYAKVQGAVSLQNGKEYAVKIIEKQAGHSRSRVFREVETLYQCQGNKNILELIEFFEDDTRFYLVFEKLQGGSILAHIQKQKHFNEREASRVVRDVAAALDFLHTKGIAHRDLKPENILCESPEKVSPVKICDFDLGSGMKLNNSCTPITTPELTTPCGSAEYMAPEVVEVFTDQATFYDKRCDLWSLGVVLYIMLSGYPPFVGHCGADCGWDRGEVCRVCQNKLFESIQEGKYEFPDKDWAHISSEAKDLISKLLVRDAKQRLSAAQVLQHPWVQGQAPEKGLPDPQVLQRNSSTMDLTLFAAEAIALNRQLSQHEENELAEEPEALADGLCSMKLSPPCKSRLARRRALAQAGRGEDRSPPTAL

In the case of `C[C@H]1CN(c2cccc3oc(-c4cnc5ccc(OCCCS(C)(=O)=O)nn45)cc23)CCN1` [II-52, 3-{4-[(3S)-3-methylpiperazin-1-yl]-1-benzofuran-2-yl}-6-[3-(methylsulfonyl)pro-poxy]imidazo[1,2-b]pyri-dazine], the IC50 (Table 2b) is 7.1 nM. On to `COc1ccc2ncc(-c3cc4c(N5CCN[C@@H](C)C5)cccc4o3)n2n1` [II-40, 6-methoxy-3-{4-[(3S)-3-methylpiperazin-1-yl]-1-benzofuran-2-yl}imidazo[1,2-b]pyridazine], for which, under “Table 2b”, it took 4.4 nM to reach half-maximal inhibition (IC50). `O=C1CC[C@H](COc2ccc3ncc(-c4cc5c(OCC6CC6)nccc5o4)n3n2)N1` [IV-12, (5R)-5-[({3-[4-(Cyclopropylmethoxy)furo[3,2-c]pyridin-2-yl]imidazo[1,2-b]-pyridazin-6-yl}oxy)methyl]pyrrolidin-2-one] came in with a half-inhibitory concentration (IC50) (Table 2d) of 7 nM.

Molecule `C[C@@H](N)COc1ccc2ncc(-c3cc4c(N5CCO[C@@H](C)C5)nccc4o3)n2n1` [III-6, (2R)-1-[(3-{4-[(2S)-2-Methylmorpholin-4-yl]furo[3,2-c]pyridin-2-yl}imidazo-[1,2-b]pyridazin-6-yl)oxy]propan-2-amine] showed an IC50 (Table 2c) of 8.8 nM.

`COc1ccc2ncc(-c3cc4c(N5CCOC[C@@H]5C)nccc4o3)n2n1` [III-93, 6-Methoxy-3-{4-[(3S)-3-methylmorpholin-4-yl]furo[3,2-c]pyridin-2-yl}imidazo[1,2-b]pyridazine] showed an IC50 (Table 2c) of 5.6 nM. `COc1cccc2oc(-c3cnc4ccc(OC[C@H]5CN(C(=O)C6CC6)CCO5)nn34)cc12` [Example I-41, Cyclopropyl[(2R)-2-({[3-(4-methoxy-1-benzofuran-2-yl)imidazo[1,2-b]pyridazin-6-yl]oxy}methyl)morpholin-4-yl]methanone] registered an IC50 (Table 2a) of 7 nM. For `C[C@@H](N)COc1ccc2ncc(-c3cc4c(N5CCOC[C@@H]5C)nccc4o3)n2n1` [III-5, (2R)-1-[(3-{4-[(3S)-3-Methylmorpholin-4-yl]furo[3,2-c]pyridin-2-yl}imidazo-[1,2-b]pyridazin-6-yl)oxy]propan-2-amine], the IC50 (Table 2c) is 10.1 nM.

Under “Table 2c”, `COc1ccc2ncc(-c3cc4c(N5CCO[C@@H](C)C5)nccc4o3)n2n1` [III-94, 6-Methoxy-3-{4-[(2S)-2-methylmorpholin-4-yl]furo[3,2-c]pyridin-2-yl}imidazo[1,2-b]pyridazine] came in with an IC50 of 4 nM.

`C[C@H]1COCCN1c1nccc2oc(-c3cnc4ccc(OCCCS(C)(=O)=O)nn34)cc12` [III-59, 3-{4-[(3S)-3-Methylmorpholin-4-yl]furo[3,2-c]pyridin-2-yl}-6-[3-(methyl-sulfonyl)propoxy]imidazo[1,2-b]pyridazine] displayed an IC50 (Table 2c) of 4.9 nM. Still for that read-out and setting: the value for `C[C@H]1COCCN1c1nccc2oc(-c3cnc4ccc(OC[C@H]5CCC(=O)N5)nn34)cc12` [III-84, (5R)-5-{[(3-{4-[(3S)-3-Methylmorpholin-4-yl]furo[3,2-c]pyridin-2-yl}imidazo[1,2-b]pyridazin-6-yl)oxy]methyl}pyrrolidin-2-one] was 0.5 nM; that for `C[C@H]1COCCN1c1nccc2oc(-c3cnc4ccc(OC[C@@H]5CCC(=O)N5)nn34)cc12` [III-87, (5S)-5-{[(3-{4-[(3S)-3-Methylmorpholin-4-yl]furo[3,2-c]pyridin-2-yl}imidazo-[1,2-b]pyridazin-6-yl)oxy]methyl}pyrrolidin-2-one] was 3.7 nM.

As for `C[C@@H]1COCCN1c1nccc2oc(-c3cnc4ccc(OC[C@H]5CCC(=O)N5)nn34)cc12` [III-79, (5R)-5-{[(3-{4-[(3R)-3-Methylmorpholin-4-yl]furo[3,2-c]pyridin-2-yl}imidazo[1,2-b]pyridazin-6-yl)oxy]methyl}pyrrolidin-2-one], half-maximal inhibition (Table 2c) (IC50) required 0.7 nM. Molecule `C[C@H]1CN(c2cccc3oc(-c4cnc5ccc(OC[C@@H]6CCC(=O)N6)nn45)cc23)CCN1` [II-42, (5S)-5-{[(3-{4-[(3S)-3-methylpiperazin-1-yl]-1-benzofuran-2-yl}imidazo[1,2-b]pyridazin-6-yl)oxy]methyl}pyrrolidin-2-one] showed an IC50 (Table 2b) of 5.8 nM. In turn, `C[C@H](N)COc1ccc2ncc(-c3cc4c(N5CCO[C@@H](C)C5)nccc4o3)n2n1` [III-29, (2S)-1-[(3-{4-[(2S)-2-Methylmorpholin-4-yl]furo[3,2-c]pyridin-2-yl}imidazo-[1,2-b]pyridazin-6-yl)oxy]propan-2-amine] came in with a half-inhibitory concentration (IC50) (Table 2c) of 4.8 nM.

Regarding `COc1ccc2ncc(-c3cc4c(N5CCNC(C)(C)C5)cccc4o3)n2n1` [II-60, 3-[4-(3,3-dimethylpiperazin-1-yl)-1-benzofuran-2-yl]-6-methoxy-imidazo[1,2-b]pyridazine], the IC50 (Table 2b) stood at 0.3 nM. Under “Table 2c”, `C[C@H](N)COc1ccc2ncc(-c3cc4c(N5CCOC[C@@H]5C)nccc4o3)n2n1` [III-28, (2S)-1-[(3-{4-[(3S)-3-Methylmorpholin-4-yl]furo[3,2-c]pyridin-2-yl}imidazo-[1,2-b]pyridazin-6-yl)oxy]propan-2-amine] returned an IC50 of 9.4 nM. `C[C@@H]1CN(c2nccc3oc(-c4cnc5ccc(OCC(F)(F)F)nn45)cc23)CCN1` [III-127, 3-{4-[(3R)-3-methylpiperazin-1-yl]furo[3,2-c]pyridin-2-yl}-6-(2,2,2-trifluoroethoxy)imidazo [1,2-b]pyridazine] showed an IC50 (Table 2c) of 4.2 nM.

In the case of `C[C@H]1CN(c2nccc3oc(-c4cnc5ccc(O[C@H]6C[C@H](N)C6)nn45)cc23)CCO1` [III-110, trans-3-[(3-{4-[(2S)-2-Methylmorpholin-4-yl]furo[3,2-c]pyridin-2-yl}imidazo[1,2-b]pyridazin-6-yl)oxy]cyclobutanamine], the IC50 (Table 2c) was found to be 10.4 nM.

The molecule `C[C@H]1CN(c2nccc3oc(-c4cnc5ccc(OCCCS(C)(=O)=O)nn45)cc23)CCO1` [III-60, 3-{4-[(2S)-2-Methylmorpholin-4-yl]furo[3,2-c]pyridin-2-yl}-6-[3-(methyl-sulfonyl)propoxy]imidazo[1,2-b]pyridazine] showed a 50% inhibitory concentration (IC50) (Table 2c) of 2.8 nM. For the setting “Table 2c”, `C[C@H]1CN(c2nccc3oc(-c4cnc5ccc(OC[C@@H]6CCC(=O)N6)nn45)cc23)CCO1` [III-88, (5S)-5-{[(3-{4-[(2S)-2-Methylmorpholin-4-yl]furo[3,2-c]pyridin-2-yl}imidazo-[1,2-b]pyridazin-6-yl)oxy]methyl}pyrrolidin-2-one] came in with an IC50 of 4.2 nM. Molecule `COc1ccc2ncc(-c3cc4c(N5CCOC[C@H]5C)nccc4o3)n2n1` [III-92, 6-Methoxy-3-{4-[(3R)-3-methylmorpholin-4-yl]furo[3,2-c]pyridin-2-yl}imidazo[1,2-b]pyridazine] had an IC50 (Table 2c) of 3.2 nM. In the case of `C[C@H]1CN(c2cccc3oc(-c4cnc5ccc(OCC(F)(F)F)nn45)cc23)CCN1` [II-41, 3-{4-[(3S)-3-methylpiperazin-1-yl]-1-benzofuran-2-yl}-6-(2,2,2-trifluoroethoxy)im-idazo[1,2-b]pyridazine], the IC50 (Table 2b) turned out to be 5.5 nM. In turn, `C[C@H]1COCCN1c1nccc2oc(-c3cnc4ccc(O[C@H]5C[C@H](N)C5)nn34)cc12` [III-109, trans-3-[(3-{4-[(3S)-3-Methylmorpholin-4-yl]furo[3,2-c]pyridin-2-yl}imidazo[1,2-b]pyridazin-6-yl)oxy]cyclobutanamine] registered an IC50 (Table 2c) of 5.2 nM.

`CC(C)(C)C(=O)N1CCC[C@H]1CCOc1ccc2ncc(-c3cc4ccccc4o3)n2n1` [Example I-3, 1-[(2S)-2-(2-{[3-(1-Benzofuran-2-yl)imidazo[1,2-b]pyridazin-6-yl]oxy}ethyl)-pyrrolidin-1-yl]-2,2-dimethylpropan-1-one] registered an IC50 (Table 2a) of 4.8 nM.
